What was measured:
[1] = molecular target: T1, human α1D receptor (Homo sapiens, UniProt P25100); test: Adrenaline α1D receptor binding assay ([3H]-prazosin); details: 100 nM test drug; [3H]-prazosin 0.6 nM; human α1D receptor-expressing CHO cell membrane; read-out: BINDING INHIBITION RATE (%) α1D 100 nM
T1 construct: expressed in transfected cells; host or cells: CHO cells (membrane preparation)
T1 sequence (P25100 1-572): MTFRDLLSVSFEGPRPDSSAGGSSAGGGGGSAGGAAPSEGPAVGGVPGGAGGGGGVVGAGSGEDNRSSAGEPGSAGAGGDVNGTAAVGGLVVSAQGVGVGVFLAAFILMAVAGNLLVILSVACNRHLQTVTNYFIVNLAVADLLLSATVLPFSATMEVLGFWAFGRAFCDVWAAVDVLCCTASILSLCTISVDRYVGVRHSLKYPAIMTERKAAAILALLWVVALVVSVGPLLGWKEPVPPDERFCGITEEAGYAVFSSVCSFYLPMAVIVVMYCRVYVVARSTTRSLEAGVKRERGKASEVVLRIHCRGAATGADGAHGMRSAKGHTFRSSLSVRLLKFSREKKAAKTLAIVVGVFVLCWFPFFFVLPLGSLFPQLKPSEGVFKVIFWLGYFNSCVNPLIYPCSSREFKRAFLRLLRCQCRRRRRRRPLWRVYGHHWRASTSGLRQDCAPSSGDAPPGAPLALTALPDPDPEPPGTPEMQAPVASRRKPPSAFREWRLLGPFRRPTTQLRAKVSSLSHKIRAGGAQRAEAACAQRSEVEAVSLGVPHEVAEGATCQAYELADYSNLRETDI
Description: (4) Adrenaline α1D Receptor Binding Assay
After a reaction in a total volume of 200 μL of 50 mM Tris-HCl (pH=7.6) buffer solution containing 50 μL of [^3H]-prazosin (final concentration 0.6 nM), 1 μL of test drug in DMSO, and 149 μL of human α1D receptor-expressing CHO cell membrane sample, human α1D receptor binding activity of [^3H]-prazosin was measured. The reaction solution let stand for 30 minutes at room temperature, and then it was quickly added on a glass fiber filter plate (Multiscreen FB, Millipore inc.) coated with 0.3% polyethyleneimine (PEI) and filtered under reduced pressure. The glass fiber filter was washed with 200 μL of ice-cooled 50 mM Tris-HCl (pH=7.6) twice, repeatedly filtered under reduced pressure, and then transferred to a vial containing 4 mL of Ecoscint A (National Diagnostics inc.). The residual radioactivity on the glass fiber filter was measured by a liquid scintillation counter. Nonspecific binding was measured in the presence of 1 μM of prazosin, and [^3H]-prazosin binding inhibition rate in the presence of 100 nM of test drug was determined.

[2] = molecular target: T2, human 5-HT6 receptor (Homo sapiens, UniProt P50406); test: Serotonin 5-HT6 receptor binding assay ([3H]-clozapine); details: 100 nM test drug; [3H]-clozapine 2 nM; human 5-HT6 receptor-expressing CHO cell membrane; read-out: BINDING INHIBITION RATE (%) 5HT6 100 nM
T2 construct: expressed in transfected cells; host or cells: CHO cells (membrane preparation)
Description: (3) Serotonin 5-HT6 Receptor Binding Assay
After a reaction in a total volume of 200 μL of 50 mM Tris-HCl (pH=7.6), 4 mM CaCl2, and 0.5 mM EDTA buffer solution containing 50 μL of [^3H]-clozapine (final concentration 2 nM), 1 μL of test drug in DMSO, and 149 μL of human 5-HT6 receptor-expressing CHO cell membrane sample, human 5-HT6 receptor binding activity of [^3H]-clozapine was measured. The reaction solution let stand for 40 minutes at room temperature, and then it was quickly added on a glass fiber filter plate (Multiscreen FB, Millipore inc.) coated with 0.3% polyethyleneimine (PEI) and filtered under reduced pressure. The glass fiber filter was washed with 200 μL of ice-cooled 50 mM Tris-HCl (pH=7.6) twice, repeatedly filtered under reduced pressure, and then transferred to a vial containing 4 mL of Ecoscint A (National Diagnostics inc.). The residual radioactivity on the glass fiber filter was measured by a liquid scintillation counter. Nonspecific binding was measured in the presence of 10 μM of SB-258585, and [^3H]-clozapine binding inhibition rate in the presence of 100 nM of test drug was determined.

[3] = molecular target: T3, human 5-HT2A receptor (Homo sapiens, UniProt P28223); test: Serotonin 5-HT2A receptor binding assay ([3H]-ketanserin); details: [3H]-ketanserin 1 nM, human 5-HT2A receptor-expressing CHO cell membrane; for inhibition at 0.001 µM: 1 nM test drug, read-out: BINDING INHIBITION RATE (%) 5HT2A 1 nM; for inhibition at 0.01 µM: 10 nM test drug, read-out: BINDING INHIBITION RATE (%) 5HT2A 10 nM
T3 construct: expressed in transfected cells; host or cells: CHO cells (membrane preparation)
Description: (2) Serotonin 5-HT2A Receptor Binding Assay
5-HT2A receptor binding assay was performed in reference to a method described by Hirose et al. (Japan. J. Pharmacol., 53, 321-329, 1990). After a reaction in a total volume of 200 μL of 50 mM Tris-HCl (pH=7.6) buffer solution containing 50 μL of [^3H]-ketanserin (final concentration 1 nM), 1 μL of test drug in DMSO, and 149 μL of human 5-HT2A receptor-expressing CHO cell membrane sample, human 5-HT2A receptor binding activity of [^3H]-ketanserin was measured. The reaction solution let stand for 15 minutes at 37° C., and then it was quickly added on a glass fiber filter plate (Multiscreen FB, Millipore inc.) coated with 0.05% Brij 35 and filtered under reduced pressure. The glass fiber filter was washed with 200 μL of ice-cooled 50 mM Tris-HCl (pH=7.6) twice, repeatedly filtered under reduced pressure, and then transferred to a vial containing 4 mL of Ecoscint A (National Diagnostics inc.). The residual radioactivity on the glass fiber filter was measured by a liquid scintillation counter. Nonspecific binding was measured in the presence of 10 μM of MDL-100907, and [^3H]-ketanserin binding inhibition rate in the presence of 1 nM or 10 nM of test drug was determined.

[4] = molecular target: human D2L receptor (Homo sapiens, UniProt P14416); test: Dopamine D2L receptor binding assay ([3H]-spiperone); details: 10 nM test drug; [3H]-spiperone 0.5 nM; human D2L receptor-expressing CHO cell membrane; read-out: BINDING INHIBITION RATE (%) D2L 10 nM
Description: (1) Dopamine D2L Receptor Binding Assay
D2L receptor binding assay was performed in reference to a method described by Hirose et al. (Japan. J. Pharmacol., 53, 321-329, 1990). After a reaction in a total volume of 200 μL of 50 mM Tris-HCl (pH=7.6) buffer solution containing 50 μL of [^3H]-spiperone (final concentration 0.5 nM), 1 μL of test drug in DMSO, and 149 μL of human D2L receptor-expressing CHO cell membrane sample, human D2L receptor binding activity of [^3H]-spiperone was measured. The reaction solution let stand for 60 minutes at room temperature, and then it was quickly added on a glass fiber filter plate (Multiscreen FB, Millipore inc.) coated with 0.3% polyethyleneimine (PEI) and filtered under reduced pressure. The glass fiber filter was washed with 200 μL of ice-cooled 50 mM Tris-HCl (pH=7.6) twice, repeatedly filtered under reduced pressure, and then transferred to a vial containing 4 mL of Ecoscint A (National Diagnostics inc.). The residual radioactivity on the glass fiber filter was measured by a liquid scintillation counter. Nonspecific binding was measured in the presence of 10 μM of spiperone, and [^3H]-spiperone binding inhibition rate in the presence of 10 nM of test drug was determined. The larger binding inhibition rate (%) means that test drug has the higher binding affinity for human D2L receptor.

T3 sequence (P28223 whole entry): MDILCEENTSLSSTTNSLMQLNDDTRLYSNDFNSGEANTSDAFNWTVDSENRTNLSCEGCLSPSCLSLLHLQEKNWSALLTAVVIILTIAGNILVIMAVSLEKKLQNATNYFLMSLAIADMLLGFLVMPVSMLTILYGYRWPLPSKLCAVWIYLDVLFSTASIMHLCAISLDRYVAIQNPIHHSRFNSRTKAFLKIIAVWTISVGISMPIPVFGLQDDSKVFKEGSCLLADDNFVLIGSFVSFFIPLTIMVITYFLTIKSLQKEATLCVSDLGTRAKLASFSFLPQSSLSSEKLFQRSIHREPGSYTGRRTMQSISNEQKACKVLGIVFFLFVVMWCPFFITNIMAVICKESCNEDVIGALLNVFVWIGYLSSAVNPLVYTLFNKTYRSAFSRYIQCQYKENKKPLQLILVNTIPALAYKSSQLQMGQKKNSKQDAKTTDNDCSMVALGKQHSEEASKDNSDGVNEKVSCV
T2 sequence (P50406 whole entry): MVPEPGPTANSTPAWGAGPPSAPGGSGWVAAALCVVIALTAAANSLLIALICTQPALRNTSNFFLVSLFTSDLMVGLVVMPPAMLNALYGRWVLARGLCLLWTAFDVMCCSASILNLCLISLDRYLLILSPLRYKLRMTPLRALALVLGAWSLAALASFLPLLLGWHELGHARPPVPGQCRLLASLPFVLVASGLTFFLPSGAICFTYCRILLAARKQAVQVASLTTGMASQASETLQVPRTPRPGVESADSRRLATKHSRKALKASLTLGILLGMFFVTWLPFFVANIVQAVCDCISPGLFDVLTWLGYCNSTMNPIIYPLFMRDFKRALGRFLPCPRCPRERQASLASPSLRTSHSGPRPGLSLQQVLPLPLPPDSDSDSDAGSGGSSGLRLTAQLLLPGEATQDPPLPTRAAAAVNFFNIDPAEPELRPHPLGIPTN
Sequence of human D2L receptor (P14416 whole entry): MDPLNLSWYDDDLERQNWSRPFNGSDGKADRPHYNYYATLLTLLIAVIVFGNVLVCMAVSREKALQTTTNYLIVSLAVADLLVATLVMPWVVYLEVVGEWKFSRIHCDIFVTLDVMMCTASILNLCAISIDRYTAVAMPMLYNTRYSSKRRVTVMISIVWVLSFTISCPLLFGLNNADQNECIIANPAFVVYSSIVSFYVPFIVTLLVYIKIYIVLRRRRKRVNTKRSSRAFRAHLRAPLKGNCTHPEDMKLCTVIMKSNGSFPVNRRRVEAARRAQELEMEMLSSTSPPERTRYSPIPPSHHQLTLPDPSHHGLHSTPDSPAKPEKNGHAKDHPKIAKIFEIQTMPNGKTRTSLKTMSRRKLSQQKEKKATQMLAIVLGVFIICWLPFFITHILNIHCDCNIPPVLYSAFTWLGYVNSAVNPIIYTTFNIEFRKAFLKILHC

| Structure (SMILES) | inhibition at 0.1 µM [1] [%] | inhibition at 0.1 µM [2] [%] | inhibition at 0.001 µM [3] [%] | inhibition at 0.01 µM [4] [%] | inhibition at 0.01 µM [3] [%] |
| --- | --- | --- | --- | --- | --- |
| Cc1ccc2cc(C(=O)N3CCC[C@H]3CCN3CCN(c4nccc5ccccc45)CC3)[nH]c2c1 [Example 11] | 5 | 86 | 64 | 69 |  |
| Cc1ccc2cc(C(=O)N3CCC[C@H]3CCN3CCC(N4CCCc5ccccc54)CC3)[nH]c2c1 [Example 12] | 43 | 84 | 28 | 59 |  |
| Cc1ccc2cc(C(=O)N3CCC[C@H]3CCN3CCN(c4nsc5cc(F)ccc45)CC3)[nH]c2c1 [Example 13] | 60 | 93 | 34 | 72 |  |
| COc1ccc2cc(C(=O)N3CCOC[C@H]3CCN3CCC(c4noc5cc(F)ccc45)CC3)[nH]c2c1 [Example 15] | 74 | 79 | 76 | 84 | 94 |
| O=C(/C=C/c1ccc2c(c1)OCO2)N1CCC[C@@H](CN2CCC(c3noc4cc(F)ccc34)CC2)C1 [Example 16] | 91 | 87 |  | 97 | 93 |
| O=C(/C=C/c1ccc2c(c1)OCO2)N1CCC[C@H](CN2CCC(c3noc4cc(F)ccc34)CC2)C1 [Example 17] | 92 | 93 |  | 84 | 99 |
| O=C(/C=C/c1ccc2c(c1)OCO2)N1CC[C@H]1CCN1CCC(c2noc3cc(F)ccc23)CC1 [Example 18] | 102 | 74 |  | 54 | 100 |
| Cc1ccc2cc(C(=O)N3CCC[C@H]3CCN3CCN(c4noc5cc(F)ccc45)CC3)[nH]c2c1 [Example 21] | 55 | 94 | 41 | 73 |  |
| Cc1ccc2cc(C(=O)N3CCCC[C@H]3CCN3CCN(c4n[nH]c5ccccc45)CC3)[nH]c2c1 [Example 23] | 34 | 75 | 34 | 62 |  |
